Test results from publication PMC4072508, “Genome-Wide Prediction and Validation of Peptides That Bind Human Prosurvival Bcl-2 Proteins” (PLoS Computational Biology, 2014).
Where “and” joins values, the source holds several entries; their conditions need not be identical. Identical values can stand only once. Like-named read-outs stand apart in the source and are kept apart here. Residues, ends and D or L forms follow the SMILES beside them. No end group written: not given here.

What was measured:
Experiment in all cases: Fluorescence polarization direct binding
Bcl-2 = target: T1, Bcl-2 (Homo sapiens, UniProt P10415, DEL53-91)
T1 construct: myc- Bcl-2 FP; made in house
T1 sequence (P10415 with tags, fused parts or gaps DEL53-91): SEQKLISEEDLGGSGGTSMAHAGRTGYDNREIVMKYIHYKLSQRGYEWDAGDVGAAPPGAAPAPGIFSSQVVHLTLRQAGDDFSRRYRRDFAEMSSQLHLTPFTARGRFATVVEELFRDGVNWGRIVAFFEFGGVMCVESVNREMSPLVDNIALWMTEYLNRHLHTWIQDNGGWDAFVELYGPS
Experimental: (§1) Peptides were purified by reverse-phase HPLC using a C18 column and a linear water/acetonitrile gradient. We re-analyzed the purified peptide by mass spectrometry if there was not a single well-defined peak in HPLC chromatogram.
(§2) Fluorescence polarization (FP) assays were done at 25°C in assay buffer (20 mM NaPO4, 50 mM NaCl, 1 mM EDTA, 0.001% Triton X (v/v), pH 7.8). […] For all FP experiments, the total well volume was 120 µl. […] Anisotropy was measured using a Spectramax M5 plate reader from Molecular Devices.
(§3) Direct binding curves were fit using Pylab/Scipy/Optimize to a single-site binding model utilized previously.
(§4) ^1Best-fit KD values determined by combining all replicate titration curves and fitting to a direct binding model (see Methods). […] Values with an X followed by a number indicate the highest concentration (the number, in nM) for which signal was measured yet no binding was detected.

Bcl-w = target: T2, Bcl-w (Homo sapiens, UniProt Q92843, Q133R)
T2 construct: myc-Bcl-w SPOT array & FP; made in house
T2 sequence (Q92843 with tags, fused parts or gaps Q133R): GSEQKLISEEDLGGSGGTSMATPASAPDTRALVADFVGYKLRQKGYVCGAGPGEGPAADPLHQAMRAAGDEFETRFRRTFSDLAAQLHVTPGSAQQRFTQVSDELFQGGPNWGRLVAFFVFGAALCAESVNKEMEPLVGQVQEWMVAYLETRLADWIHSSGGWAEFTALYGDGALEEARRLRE
Experimental: as §1, §2, §3, §4

Bfl-1 = target: T3, Bfl-1 (Homo sapiens, UniProt Q16548)
T3 construct: myc- Bfl-1 SPOT array & FP; made in house
T3 sequence (Q16548 with tags, fused parts or gaps): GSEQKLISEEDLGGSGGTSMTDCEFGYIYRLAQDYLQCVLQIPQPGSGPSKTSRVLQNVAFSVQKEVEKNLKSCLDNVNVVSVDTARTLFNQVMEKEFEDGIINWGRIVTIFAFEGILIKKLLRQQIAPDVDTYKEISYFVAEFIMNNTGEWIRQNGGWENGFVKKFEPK
Experimental: as §1, §2, §3, §4

Mcl-1 = target: T4, Mcl-1 (Homo sapiens, UniProt Q07820)
T4 construct: myc-Mcl-1 SPOT array & FP; made in house
T4 sequence (Q07820 with tags, fused parts or gaps): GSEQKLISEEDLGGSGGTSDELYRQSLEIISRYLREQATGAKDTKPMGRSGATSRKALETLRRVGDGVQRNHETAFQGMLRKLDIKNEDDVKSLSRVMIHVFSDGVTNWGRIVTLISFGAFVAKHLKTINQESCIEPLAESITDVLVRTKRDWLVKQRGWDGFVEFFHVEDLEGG
Experimental: as §1, §2, §3, §4

Bcl-xL = target: T5, Bcl-xL (Homo sapiens, UniProt Q07817)
T5 construct: myc-Bcl-xL SPOT array & FP; made in house
T5 sequence (Q07817 with tags, fused parts or gaps): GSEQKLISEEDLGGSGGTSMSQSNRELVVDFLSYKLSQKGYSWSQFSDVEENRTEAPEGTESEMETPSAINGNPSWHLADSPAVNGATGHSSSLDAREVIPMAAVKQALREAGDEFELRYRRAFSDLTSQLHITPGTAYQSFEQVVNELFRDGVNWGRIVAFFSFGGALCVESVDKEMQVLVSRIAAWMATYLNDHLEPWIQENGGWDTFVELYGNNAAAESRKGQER
Experimental: as §1, §2, §3, §4

[1] = FP direct binding, 10 nM FAM-labeled peptide, receptor titrated, 25°C, pH 7.8, fit of all replicate titrations, X+number in a cell = highest concentration (nM) measured with no binding detected, given here as >, SPNS1 fit to raw fluorescence, read-out: Best-fit KD, Bcl-2
[2] = benchmark classification of peptides newly characterized in this study, read-out: Binder class, Bcl-2
[3] = FP direct binding, 10 nM FAM-labeled peptide, receptor titrated, 25°C, pH 7.8, fit of all replicate titrations, X+number in a cell = highest concentration (nM) measured with no binding detected, given here as >, SPNS1 fit to raw fluorescence, read-out: Best-fit KD, Bcl-w
[4] = benchmark classification of peptides newly characterized in this study, read-out: Binder class, Bcl-w
[5] = FP direct binding, 10 nM FAM-labeled peptide, receptor titrated, 25°C, pH 7.8, fit of all replicate titrations, X+number in a cell = highest concentration (nM) measured with no binding detected, given here as >, SPNS1 fit to raw fluorescence, read-out: Best-fit KD, Bfl-1
[6] = benchmark classification of peptides newly characterized in this study, read-out: Binder class, Bfl-1
[7] = Binder class, Mcl-1, benchmark classification of peptides newly characterized in this study
[8] = FP direct binding, 10 nM FAM-labeled peptide, receptor titrated, 25°C, pH 7.8, fit of all replicate titrations, X+number in a cell = highest concentration (nM) measured with no binding detected, given here as >, SPNS1 fit to raw fluorescence
[9] = FP direct binding, 10 nM FAM-labeled peptide, receptor titrated, 25°C, pH 7.8, fit of all replicate titrations, X+number in a cell = highest concentration (nM) measured with no binding detected, given here as >, SPNS1 fit to raw fluorescence, read-out: Best-fit KD, Bcl-xL
[10] = benchmark classification of peptides newly characterized in this study, read-out: Binder class, Bcl-xL

Molecule	Kd (Bcl-2; [1])	Kd (Bcl-2; [2])	Kd (Bcl-w; [3])	Kd (Bcl-w; [4])	Kd (Bfl-1; [5])	Kd (Bfl-1; [6])	Kd (Mcl-1; [7])	Kd (Mcl-1; [8])	Kd (Bcl-xL; [9])	Best-fit KD, Bcl-2 (Bcl-2; [8])	Best-fit KD, Bcl-w (Bcl-w; [8])	Best-fit KD, Bcl-xL (Bcl-xL; [8])	Kd (Bcl-xL; [10])
CC[C@H](C)[C@H](N)C(=O)N[C@H](C(=O)N[C@@H](CCC(N)=O)C(=O)N[C@@H](CCSC)C(=O)N[C@H](C(=O)N[C@H](C(=O)N[C@@H](CCC(=O)O)C(=O)N[C@@H](CC(C)C)C(=O)N[C@@H](CC(C)C)C(=O)N[C@@H](CCCCN)C(=O)N[C@@H](CCCNC(=N)N)C(=O)N[C@H](C(=O)NCC(=O)N[C@@H](CC(=O)O)C(=O)N[C@@H](CCC(N)=O)C(=O)N[C@@H](Cc1c[nH]c2ccccc12)C(=O)N[C@@H](CCC(=O)O)C(=O)N[C@@H](CCC(=O)O)C(=O)N[C@@H](CCC(=O)O)C(=O)N[C@@H](CCC(N)=O)C(=O)N[C@@H](CO)C(=O)N[C@@H](CC(C)C)C(=O)N[C@@H](C)C(N)=O)C(C)C)C(C)C)[C@@H](C)CC)[C@@H](C)CC [C6orf222]	< 30 nM and 0.3 nM	< 1000 nM	< 30 nM and 13 nM	< 1000 nM	< 30 nM and 1 nM	< 1000 nM	< 1000 nM	< 30 nM and 23 nM	–	–	–	–	–
CC[C@H](C)[C@H](NC(=O)[C@H](CCC(=O)O)NC(=O)[C@H](C)NC(=O)[C@H](CO)NC(=O)[C@H](Cc1ccccc1)NC(=O)[C@H](CCC(N)=O)NC(=O)[C@H](CC(=O)O)NC(=O)[C@H](C)NC(=O)[C@H](CC(C)C)NC(=O)[C@H](Cc1c[nH]cn1)NC(=O)[C@H](CCCNC(=N)N)NC(=O)[C@H](CC(C)C)NC(=O)[C@H](CCC(=O)O)NC(=O)[C@H](CCC(N)=O)NC(=O)[C@H](C)NC(=O)[C@H](CCCCN)NC(=O)[C@@H]1CCCN1C(=O)[C@H](CCCNC(=N)N)NC(=O)[C@@H](NC(=O)[C@@H](N)CO)[C@@H](C)CC)C(=O)N[C@@H](C)C(=O)N[C@@H](CCCNC(=N)N)C(=O)N[C@@H](CCCNC(=N)N)C(N)=O [MCF2L]	6 nM	< 1000 nM	7 nM	< 1000 nM	> 4100 nM	> 10000 nM	> 10000 nM	> 4000 nM	4 nM	bound tightly	bound tightly	bound tightly	< 1000 nM
CC(C)C[C@H](NC(=O)CNC(=O)[C@@H](NC(=O)[C@H](CCCCN)NC(=O)[C@H](CCCCN)NC(=O)[C@H](CC(N)=O)NC(=O)[C@H](CCC(=O)O)NC(=O)[C@H](CC(=O)O)NC(=O)[C@@H](N)[C@@H](C)O)C(C)C)C(=O)N[C@@H](C)C(=O)N[C@@H](CC(C)C)C(=O)N[C@@H](CCCCN)C(=O)N[C@@H](CC(=O)O)C(=O)N[C@@H](CC(C)C)C(=O)N[C@@H](C)C(=O)N[C@@H](CCCCN)C(=O)N[C@@H](CCC(N)=O)C(=O)N[C@@H](Cc1ccc(O)cc1)C(=O)N[C@@H](CO)C(=O)N[C@@H](CC(=O)O)C(=O)N[C@@H](CCCNC(=N)N)C(=O)N[C@@H](CC(C)C)C(=O)N[C@@H](CCC(=O)O)C(=O)N[C@@H](CS)C(=O)N[C@@H](CS)C(=O)N[C@@H](CCC(=O)O)C(N)=O [NUB1] (H-TDENKKVGLALKDLAKQYSDRLECCE-NH2)	562 nM	–	> 4000 nM	–	> 4000 nM	–	> 10000 nM	> 10000 nM	2720 nM	–	–	–	–
AIRPRAVELRHLADDFINGNKKK-NH2 [MCF2L2]	60 nM	< 1000 nM	1120 nM	1000 to 10000 nM	> 3370 nM	> 10000 nM	> 10000 nM	> 4000 nM	292 nM	–	–	–	< 1000 nM
ATKRETAATFLKKVAKEFGFQNNGFS-NH2 [NPLOC4]	2060 nM	> 10000 nM	> 4500 nM	> 10000 nM	> 4670 nM	> 10000 nM	1000 to 10000 nM	> 4000 nM	> 100000 nM	–	–	–	> 10000 nM
ATRRLSGFLRTLADRLEGTKELL-NH2 [MINA]	266 nM	< 1000 nM	1230 nM	1000 to 10000 nM	1130 nM	1000 to 10000 nM	> 10000 nM	> 10000 nM	1010 nM	–	–	–	1000 to 10000 nM
AWGKFGGAFARYADEMKEIQERQ-NH2 [PURB]	34 nM	< 1000 nM	> 1800 nM	> 10000 nM	> 4670 nM	> 10000 nM	> 10000 nM	> 4000 nM	> 100000 nM	–	–	–	> 10000 nM
ELQELARKLQELADASENLLTEN-NH2 [TXNDC11]	86 nM	< 1000 nM	249 nM	< 1000 nM	> 10000 nM	> 10000 nM	1000 to 10000 nM	2380 nM	1490 nM	–	–	–	1000 to 10000 nM
EVLAGPLAQRLSHIAEDVGRLVKKSR-NH2 [ARHGAP4]	6090 nM	1000 to 10000 nM	749 nM	1000 to 10000 nM	> 5590 nM	> 10000 nM	< 1000 nM	> 2430 nM	3060 nM	–	–	–	1000 to 10000 nM

Continued, values first:

Kd (Bcl-2; [1])	Kd (Bcl-2; [2])	Kd (Bcl-w; [3])	Kd (Bcl-w; [4])	Kd (Bfl-1; [5])	Kd (Bfl-1; [6])	Kd (Mcl-1; [7])	Kd (Mcl-1; [8])	Kd (Bcl-xL; [9])	Best-fit KD, Bcl-2 (Bcl-2; [8])	Best-fit KD, Bcl-w (Bcl-w; [8])	Best-fit KD, Bcl-xL (Bcl-xL; [8])	Kd (Bcl-xL; [10])	Molecule
2560 nM	–	3280 nM	–	> 10000 nM	–	1000 to 10000 nM	> 10000 nM	> 10000 nM	–	–	–	–	CC[C@H](C)[C@H](NC(=O)[C@@H](NC(=O)[C@H](CCSC)NC(=O)CNC(=O)[C@H](CCCNC(=N)N)NC(=O)[C@H](CO)NC(=O)[C@H](CCC(N)=O)NC(=O)[C@H](CC(C)C)NC(=O)[C@H](CC(C)C)NC(=O)[C@H](CO)NC(=O)CNC(=O)[C@H](CS)NC(=O)[C@@H](NC(=O)[C@H](CC(=O)O)NC(=O)[C@H](CCCNC(=N)N)NC(=O)[C@H](CCSC)NC(=O)[C@H](CC(C)C)NC(=O)[C@H](CCCCN)NC(=O)[C@H](CO)NC(=O)[C@@H](NC(=O)[C@H](CS)NC(=O)[C@H](CO)NC(=O)[C@H](CC(C)C)NC(=O)[C@H](CCC(N)=O)NC(=O)[C@H](CS)NC(=O)[C@@H](N)CC(C)C)C(C)C)C(C)C)C(C)C)C(N)=O [FBXO30] (H-LCQLSCVSKLMRDVCGSLLQSRGMVI-NH2)
> 3050 nM	–	> 4350 nM	–	> 3370 nM	–	–	–	–	–	–	–	–	CC[C@H](C)[C@H](NC(=O)[C@H](CCC(N)=O)NC(=O)[C@H](C)NC(=O)[C@H](CC(C)C)NC(=O)[C@H](Cc1ccc(O)cc1)NC(=O)[C@H](CCCNC(=N)N)NC(=O)[C@H](CO)NC(=O)[C@H](CCC(=O)O)NC(=O)[C@@H]1CCCN1C(=O)[C@@H](NC(=O)[C@@H](NC(=O)[C@H](CCC(=O)O)NC(=O)[C@@H](NC(=O)[C@@H](N)CCCCN)[C@@H](C)CC)[C@@H](C)O)[C@@H](C)O)C(=O)NCC(=O)N[C@@H](CC(=O)O)C(=O)N[C@@H](CO)C(=O)N[C@H](C(=O)N[C@@H](CO)C(=O)N[C@@H](CC(C)C)C(=O)N[C@H](C(=O)N[C@@H](CS)C(=O)N[C@@H](CO)C(=O)N[C@H](C(=O)N[C@H](C(=O)NCC(N)=O)[C@@H](C)O)[C@@H](C)O)[C@@H](C)O)C(C)C [VCAM1]
342 nM	1000 to 10000 nM	> 100000 nM	1000 to 10000 nM	> 4000 nM	> 10000 nM	1000 to 10000 nM	> 4000 nM	1380 nM	–	–	–	1000 to 10000 nM	APYYLSRNLKQQADIIFMPYNYL-NH2 [RTEL1]
70 nM	> 10000 nM	907 nM	> 10000 nM	1600 nM	1000 to 10000 nM	–	–	–	–	–	–	< 1000 nM	DARDYAVVLRKYADKIYSISMKH-NH2 [FOLH1]
264 nM	< 1000 nM	64 nM	< 1000 nM	43 nM	< 1000 nM	1000 to 10000 nM	–	–	–	–	–	–	FIQSLAAMLKQYADKLEFMHILT-NH2 [CASP3]
